Here are results for one compound from paper PMC12498190, “A Photocaged N‐Phosphonopiperidinone as a Selective Photo‐Cleavable DPP8/9 Inhibitor” (Chembiochem, 2025).

In one data set the test system is HEK293 cells. Description: Cell viability assay (MTT). Format: cell-based, human. Particulars: 24 h; for Viability of cells (in words): after 5 min green light irradiation. How it is done: Figure 2 Competitive ABPP with photo‐cleavable inhibitor 5 in HEK293 cells. A) Schematic overview of a competitive ABPP experiment. A proteome is pre‐incubated with a competitor, followed by a labeling reaction with an activity‐based probe (ABP). In the case of a photocaged inhibitor, the active compound can be released via irradiation. Target proteins of the competitor cannot be bound by the ABP, resulting in an absence of the respective protein band in‐gel analysis. Created in BioRender. Najdzion, M. (2025) https://BioRender.com/84zn8cb B) Gel‐based competitive ABPP experiment in HEK293 cell lysates with the broadband serine hydrolase ABP ≡FP or the DPP8/9‐directed ABP 2 and the photocaged inhibitor 5, at the indicated concentrations, after or without prior irradiation with green light for 5 min. The corresponding pre‐incubation time for 5 was 30 min. C) Corresponding in situ competitive ABPP experiment in HEK293 cell culture, again with 10 µM 2 for 1 h. Labeling was competed by pre‐incubation with 20 µM 5 for 1 h, followed by an activation of the photocaged inhibitor by irradiation for 5 min with a green LED lamp, if applicable. D) Green light treatment has no cytotoxic effect. HEK293 cells were irradiated with a green LED lamp in the presence of 0.5% DMSO for 5 min (‘light’), and cell viability was measured after 24 h. […] Data was normalized to the non‐irradiated control (‘dark’). E) Green light treatment leads to the release of the active DPP8/9 inhibitor. HEK293 cells were incubated with compound 1 or 5 for 24 h. For both compounds, cell viability was measured under ‘dark’ (not irradiated) and ‘light’ (irradiated for 5 min with a green LED lamp after the addition of the inhibitor) conditions. […] Data was normalized to the non‐irradiated DMSO control.
In order to validate target engagement in living cells and potential cytotoxic effects of green light treatment, we determined cell viability of HEK293 cells after 24 h inhibitor treatment with 5 with or without 5 min green light irradiation, as the application of DPP8/9 inhibitors at high concentrations and thus elimination of any residual DPP8/9 activity results in cytotoxicity.^[ [38], [39] ^– [40] ^] As a control, effects of green light treatment on cell viability were examined in the absence of any inhibitor after 24 h, again with or without 5 min irradiation (Figure 2D). […] Of note, no additional effect of the photocage on cell viability was observed. In summary, our cell viability studies confirm target engagement in live cells exclusively after photorelease, thereby again confirming the suitability of the photocaged DPP8/9 inhibitor 5 as a cell biological tool compound.
To investigate the cytotoxicity of compounds, 2 × 10^4 HEK293 cells were cultured in DMEM (+/+) on 96‐well flat‐bottom cell culture plates (Sarstedt, Germany) as described above. After 24 h, cells were treated with indicated concentrations of compounds (final DMSO concentration: 0.5%) and, if applicable, irradiated with a green LED lamp (λ = 520−530 nm; Eurolite, Germany) for 5 min. Control cells were treated with DMSO. Cell viability was measured 24 h after compound treatment. To this end, 25 µL Thiazolyl Blue Tetrazolium Bromide (MTT) solution (5 mg mL^−1 MTT (Sigma Aldrich, USA) in PBS (Gibco, USA)) was added to each well directly into the medium. After 3 h of incubation at 37 °C, the medium was removed and formazan crystals were dissolved by adding 150 µL DMSO (1 h, 37 °C, gentle shaking), followed by an absorbance measurement at 570 and 630 nm as a reference using a Tecan Spark 10 M multimode microplate reader (Tecan Group Ltd., Switzerland). Each experiment was performed with five replicates. Relative cell viability was expressed as a percentage relative to the DMSO‐treated control cells.

The target of another data set is T1, human DPP8 (Homo sapiens, UniProt Q6V1X1).
T1 construct: purchased Proteros Biostructures GmbH, Germany
T1 sequence (Q6V1X1 whole entry): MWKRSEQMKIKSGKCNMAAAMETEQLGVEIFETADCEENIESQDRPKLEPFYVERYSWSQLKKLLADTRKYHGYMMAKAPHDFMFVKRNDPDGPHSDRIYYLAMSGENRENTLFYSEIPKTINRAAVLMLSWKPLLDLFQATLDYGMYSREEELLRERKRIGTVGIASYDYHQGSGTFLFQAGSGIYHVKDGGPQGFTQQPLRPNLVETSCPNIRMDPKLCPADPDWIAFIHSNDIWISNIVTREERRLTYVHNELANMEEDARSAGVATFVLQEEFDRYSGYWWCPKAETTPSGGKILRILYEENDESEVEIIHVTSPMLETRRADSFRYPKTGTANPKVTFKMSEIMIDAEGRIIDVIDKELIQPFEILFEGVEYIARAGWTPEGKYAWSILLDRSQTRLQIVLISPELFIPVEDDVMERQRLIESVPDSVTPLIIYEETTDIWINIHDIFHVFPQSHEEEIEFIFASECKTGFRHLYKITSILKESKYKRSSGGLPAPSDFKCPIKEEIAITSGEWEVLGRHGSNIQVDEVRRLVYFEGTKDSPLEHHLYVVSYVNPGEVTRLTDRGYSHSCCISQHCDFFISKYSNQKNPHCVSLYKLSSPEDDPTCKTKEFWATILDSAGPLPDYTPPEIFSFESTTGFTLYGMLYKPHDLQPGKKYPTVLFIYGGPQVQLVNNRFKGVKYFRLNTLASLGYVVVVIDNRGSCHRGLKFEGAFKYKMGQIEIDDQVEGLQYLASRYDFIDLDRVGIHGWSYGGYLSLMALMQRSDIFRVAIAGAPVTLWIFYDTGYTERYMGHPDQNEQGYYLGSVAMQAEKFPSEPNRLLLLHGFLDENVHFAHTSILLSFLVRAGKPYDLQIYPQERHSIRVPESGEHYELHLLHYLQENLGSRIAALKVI
Description: Progress-curve kinetics of covalent DPP8 inhibition (kinact, KI). Format: biochemical. Particulars: dark. The text has this:
As previously shown by us, 1 inhibits DPP8 and DPP9 via a covalent modification of the active site serine.^[ [31] ^] Therefore, we also measured the time dependence of this covalent modification of the target enzyme by recording progress curves for the inhibition of DPP8 and 9 and using them to calculate the corresponding binding affinity (KI), maximum enzyme inhibition rate (kinact) as well as the efficiency of covalent bond formation (kinact/KI) values for 5 after and without green light irradiation ( Figure S1 and Table S1, Supporting Information).
To calculate the reaction rate of covalent bond formation between DPP proteins and the inhibitor, kinact, KI, and kinact/KI were determined as previously described.^[ [49] ^, [50] ^] To this end, a dilution series of 5 was irradiated using a green LED lamp (λ = 520−530 nm; Eurolite, Germany) for 5 min and subsequently mixed with 250 µM GP‐AMC. The mixture was then added to 10 nM enzyme, and the resulting activity was measured for a maximum of 60 min at 30 °C. Fluorescence intensities were plotted against time and data were fitted to the following equation: [drawing 1] using Graph‐Pad Prism v10.4.1. The obtained pseudo first‐order rate constant was used to determine kinact and KI by fitting the plot of kobs against inhibitor concentration to the following equation: [drawing 2] . The efficiency of covalent bond formation (kinact/KI) was calculated by the ratio of kinact/KI. All measurements were performed in triplicate, and error bars represent standard errors of the fit.
Supplementary Figure 1. Kinetic analysis of DPP8 and DPP9 inhibition by compound 5. The pseudo-first order rate constant (kobs) was calculated from an exponential regression of progress curves and plotted against the concentration of compound 5. All measurement were performed in triplicate (n = 3 technical replicates), mean values are shown and error bars indicate the standard error of the mean (SEM). Inhibition assay was performed with DPP8 (A, B) and DPP9 (C, D) under ‘dark’ (A, C) and ‘light’ (B, D) conditions. […]

In general, kinact refers to the rate constant of inactivation at saturating inhibitor. By kinact/KI is commonly meant the second-order rate constant of inactivation. With `CCCCCc1ccc(SCCP(=O)(OCC)N2CCC[C@H](NC(=O)OCC3=C4C(C)=CC(C)=[N+]4[B-](C)(C)n4c(C)cc(C)c43)C2=O)cc1` (stereo partly drawn) [Compound 5], the “Viability of cells (in words)” value in the data set on HEK293 cells (25 µM) is on record as “significantly reduced”. For the same compound, in the data set on HEK293 cells (50 µM), the “Viability of cells (in words)” value is given as “significantly reduced”. Moreover, the “Cytotoxicity (in words)” value in the data set with HEK293 cells (dark, up to highest concentrations used) was “no cytotoxicity”. At human DPP8, the KI (inactivation) is 8.94 µM, the kinact worked out at 0.002 s⁻¹ and the kinact/KI stood at 223 M⁻¹ s⁻¹.
